Measurements reported in patent US8871754B2, “Compounds and compositions for the treatment of parasitic diseases” (IRM LLC, priority 2012, dated 2014).

Key:
[1] = test system: P. falciparum (NF54 or 3D7 strain) in infected human erythrocytes; test: Assay for P. falciparum proliferation in infected human blood cells (SYBR Green); format: cell-based; settings: Plasmodium falciparum, Erythrocyte; NF54 or 3D7 strain, 72 hours, SYBR Green fluorescence; read-out: EC50 (nM), inhibitory efficacy in delaying P. falciparum proliferation in infected human blood cells
In short: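 NF54 or 3D7 parasites in O+ human erythrocytes (final 2.5% hematocrit, 0.3% parasitemia) exposed to compound for 72 h at 37° C. under 3% O2. Cells then lysed overnight with SYBR Green I, and fluorescence read at excitation 425 nm / emission 530 nm to give EC50.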

[2] = test system: P. yoelii sporozoites in HepG2-A16-CD81EGFP cells; test: P. yoelii sporozoite invasion assay (proliferation of parasite in infected liver cells, immunofluorescence); format: cell-based; settings: Plasmodium yoelii, 48 hours, parasite area by immunofluorescence, read-out: EC50 (nM), inhibitory efficacy by the P. yoelii sporozoite invasion assay
Description: Assay for Profiferation of Parasite in Infected Liver Cells
Compounds of the invention can be assayed to measure their capacity to inhibit proliferation of parasites in liver cells. The proliferation is quantified by determine the number of infected cells by immunofluorescence.
Due to the difficulty of successfully infecting immortalized human liver cell lines with the human malaria sporozoites (liver-stage parasite), rodent malaria sporozoites from Plasmodium yoelii (17XNL) and P. berghei (ANKA) are the preferred surrogate. Sporozoites are obtained from Anopheles stephensi mosquitoes supplied by the New York University Insectary, which ships the malaria-infected mosquitoes 10-13 days following the ingestion of an infective blood meal.
A transgenic HepG2 cell line expressing the tetraspanin CD81 receptor (HepG2-A16-CD81^EGFP) is used to increase the infectivity rate of rodent-malaria sporozoites into human cells. HepG2-A16-CD81^EGFP cells are stably transformed to express a GFP-CD81 fusion protein. A continuous in vitro culture of this line was maintained at 37° C. in 4% CO2 in complete media (CM) which contains: DMEM (Invitrogen, Carlsbad, USA) supplemented with 10% FCS, 0.29 mg/ml glutamine, 100 units penicillin and 100 μg/ml streptomycin (SigmaAldrich, USA).
P. yoelii Sporozoite Invasion Assay
Twenty to twenty-six hours prior to sporozoite infection, 7.5×10^3 HepG2-A16-CD81^EGFP cells are seeded into 384-well plates (Aurora 384 IQ-EB black plates with clear bottoms; 50 μl of 1.5×10^5 cells/ml in CM). These plates are incubated at 37° C. with 4% CO2 overnight. Two hours prior to infection, 50 nl of compound dissolved in DMSO (0.1% final DMSO concentration per well) were transferred with a PinTool (GNF Systems) into the assay plates (10 μM final concentration). A 1:3 serial dilution of atovaquone (10 μM at the highest final concentration) and wells treated only with DMSO were used as positive and negative controls, respectively.
Freshly dissected salivary glands from infected mosquitoes were homogenized in a glass tissue grinder, filtered twice through Nylon cell strainers (40 μm pore size, BD Falcon) and counted using a hemocytometer. The assay plate with HepG2-A16-CD81^EGFP cells and compound were then infected with 8×10^3 sporozoitesper well and the plates are subjected to a centrifugal force of 650×g to pellet the sporozoites onto the liver cell monolayer. The assay plate is incubated at 37° C. for 2 hours to permit sporozoite invasion, then the media is aspirated from the media plate, and replaced with 50 μl CM (containing a 5× concentration of penicillin/streptomycin; 500 units penicillin and 0.5 mg streptomycin per ml) per well. 50 nl of compound is re-introduced by PinTool and the assay plate incubated for 48 hours at 37° C. before quantification of infected cells by immunofluorescence.
Atovaquone and uninfected wells were used as controls on each plate. Two replicate plates are tested for each assay.
Immunofluorescence Quantification of Exo-Erythrocytic Forms (EEFs)
After fixing the cells by addition of 12.5 μl of 20% solution of paraformaldehyde (EMS, Hatfield, USA) to each assay well (4% final formaldehyde concentration), membranes were permeabilized with 0.5% Triton-X-100 (Thermo Fisher Scientific) and EEFs were stained using a mouse polyclonal serum raised against the Plasmodium yoelii heat shock protein 70 (PyHSP70), a DyLight 649 goat anti-mouse IgG, Fc(gamma) fragment specific secondary antibody (Jackson Immuno Research, Cat#115-495-071) and the Hoechst 33342 nucleic acid dye (Invitrogen, Carlsbad, USA). Stained EEFs were then quantified using the Opera Confocal High Content Screening System (Perkin Elmer, Waltham, USA). Images were collected using a 20× objective lens (20×/0.45 NA, LWD Plan Fluor, Olympus) at a binning of 2, using a 365 nm Xeon arc lamp illumination to detect the Hoechst-labeled nuclei and 635 nm laser line to excite DyLight649-labeled parasites. […]

SMILES | EC50 [1] | EC50 [2]
CN(C(=O)c1ccn2ncc(-c3ccc(C(F)(F)F)cc3)c2c1)c1ccc(S(C)(=O)=O)cn1 [Example 34, N-methyl-N-(5-(methylsulfonyl)114yridine-2-yl)-3-(4-(trifluoromethyl)phenyl)pyrazolo[1,5-a]pyridine-5-carboxamide] | 22 nM | 53.2 nM
CN(C(=O)c1ccn2ncc(-c3cnc4[nH]ccc4c3)c2c1)c1ccc(C#N)cc1 [Example 40, N-(4-cyanophenyl)-N-methyl-3-(1H-pyrrolo[2,3-b]pyridin-5-yl)pyrazolo[1,5-a]pyridine-5-carboxamide] | 1 nM | 63.1 nM
CN(C(=O)c1ccn2ncc(-c3ccc(N)nc3)c2c1)c1ccc(C#N)cc1 [Example 41, 3-(6-aminopyridin-3-yl)-N-(4-cyanophenyl)-N-methylpyrazolo[1,5-a]pyridine-5-carboxamide] | 2 nM | 14.3 nM
CN(C(=O)c1ccn2ncc(-c3ccc(N)nc3)c2c1)c1ccc(C#N)cn1 [Example 54, 3-(6-aminopyridin-3-yl)-N-(5-cyanopyridin-2-yl)-N-methylpyrazolo[1,5-a]pyridine-5-carboxamide] | 9 nM | 79 nM
CNC(=O)c1ccc(-c2cnn3ccc(C(=O)N(C)c4ccc(C#N)cc4)cc23)cc1 [Example 67, N-(4-cyanophenyl)-N-methyl-3-(4-(methylcarbamoyl)phenyl)pyrazolo[1,5-a]pyridine-5-carboxamide] | 5 nM | 4.6 nM
CNC(=O)c1ccc(-c2cnn3ccc(C(=O)N(C)c4ccc(C#N)cn4)cc23)cc1 [Example 75, N-(5-cyanopyridin-2-yl)-N-methyl-3-(4-(methylcarbamoyl)phenyl)pyrazolo[1,5-a]pyridine-5-carboxamide] | 4 nM | 2.25 nM
